Experimental data from ChEMBL document CHEMBL1124501, “Novel cytotoxic compounds from the ascidian Lissoclinum bistratum” (J Med Chem, 1989).
In brackets after ≈: the same amount, converted by molar mass.

Tests used:
Type in all cases: functional, cell-based
T-24 [1] = assay: Cytotoxicity evaluated by incorporation of [methyl-3H]thymidine into human T24, a bladder carcinoma cell line.
MRC5CV1 = assay: Cytotoxicity evaluated by incorporation of [methyl-3H]thymidine into human MRC5CV1, a control fibroblast cell line
T-24 [2] = assay: Cytotoxicity evaluated by incorporation of [methyl-3H]thymidine into human T24, a bladder carcinoma cell line
P388 = assay: Cytotoxicity in vitro against P388 cell line.; conditions: Mus musculus

| SMILES | IC50 (T-24 [1]) | IC50 (MRC5CV1) | IC50 (T-24 [2]) | IC50 (P388) |
| --- | --- | --- | --- | --- |
| CC(C)[C@@H]1NC(=O)C2CSC(=N2)[C@H](Cc2ccccc2)NC(=O)C2CSC(=N2)[C@@H](C)NC(=O)[C@H]2N=C1O[C@@H]2C [BISTRATAMIDE A] | 0.07 µg/mL (≈ 0.123 µM) | 50 µg/mL (≈ 87.6 µM) | – | – |
| CC(C)[C@@H]1NC(=O)c2csc(n2)[C@H](Cc2ccccc2)NC(=O)C2CSC(=N2)[C@@H](C)NC(=O)[C@H]2N=C1O[C@@H]2C [BISTRATAMIDE B] | – | > 100 µg/mL | 0.09 µg/mL (≈ 0.158 µM) | – |
| C/C=C/C(=O)CC1CCC2(O)CC(C)C(CCCNC(=O)C(C)C3CNC(=O)CC(O1)C(C)CCCCC(CCC(C)/C=C(\C)C(C)O)O3)O2 (centres undefined) [BISTRATENE A] | 0.07 µg/mL (≈ 0.0993 µM) | 0.07 µg/mL (≈ 0.0993 µM) | – | – |
| C/C=C/C(=O)CC1CCC2(O)CC(C)C(CCCNC(=O)C(C)C3CNC(=O)CC(O1)C(C)CCCCC(CCC(C)/C=C(\C)C(C)OC(C)=O)O3)O2 (centres undefined) [BISTRATENE B] | 0.09 µg/mL (≈ 0.12 µM) | 0.09 µg/mL (≈ 0.12 µM) | – | – |
| CCC/C=C/C=C/C(=O)O[C@H]1/C(=C/C(=O)OC)C[C@H]2CC([C@@H](C)O)OC(=O)C[C@H](O)C[C@@H]3C[C@H](OC(C)=O)C(C)(C)[C@](O)(C[C@@H]4C/C(=C/C(=O)OC)C[C@H](/C=C/C(C)(C)[C@]1(O)O2)O4)O3 (some centres undefined) [BRYOSTATINS] | – | – | – | 0.89 µg/mL (≈ 0.983 µM) |
